The values below come from patent US6037158A, “Alcohol dehydrogenase and its use for the enzymatic production of chiral hydroxy compounds” (priority 1996, dated 2000).

Like-named read-outs stand apart in the source and are kept apart here.

In this test the target is T1, alcohol dehydrogenase from L. brevis (Levilactobacillus brevis, UniProt Q84EX5).
T1 sequence (Q84EX5 2-252): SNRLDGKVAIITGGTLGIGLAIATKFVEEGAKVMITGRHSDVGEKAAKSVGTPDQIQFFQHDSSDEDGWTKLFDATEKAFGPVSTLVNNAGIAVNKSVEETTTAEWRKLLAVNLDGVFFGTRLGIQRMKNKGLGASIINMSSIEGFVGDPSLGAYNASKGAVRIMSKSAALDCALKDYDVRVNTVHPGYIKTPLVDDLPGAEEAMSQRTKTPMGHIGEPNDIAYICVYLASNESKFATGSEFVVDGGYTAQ
The test can be described thus: biochemical. The format is biochemical. Particulars: for Activity: 0.19 mM NADPH, pH 7.0, purified enzyme diluted 1:10; for activity at 10000 µM: read-out: Relative act. As to the method: A series of other ketones and keto esters were used instead of acetophenone and it was tested whether these can be reduced by enzyme catalysis.
The following test mixture was used for this:
970 μl triethanolamine buffer (50 mM; pH 7.0, containing 10 mM keto compound)
20 μl NADPH (0.19 mM in the test)
Some of the ketones were also tested at a concentration of 1 mM in order to verify a possible substrate inhibition at 10 mM.

The mark [1] stands for this setting: relative to acetophenone = 100, 10 mM keto compound.

Regarding `CCOC(=O)CC(=O)CC` [3-oxo-n-valeric acid ethyl ester], the Activity (10 mM keto compound) is reported as 2.29 U/ml. Under setting [1], the activity at 10000 µM was determined as 70%.
Consider `CCOC(=O)CC(C)=O` [aceto acetic acid ethyl ester], for which the activity at 10000 µM was determined as 109%. For the setting “10 mM keto compound”, this compound had an Activity of 3.54 U/ml.
For `CCOC(=O)C(C)C(C)=O` (stereo not shown) [ethyl-2-methylacetoacetate], the Activity (10 mM keto compound) is on record as 0.84 U/ml. For the same compound, the activity at 10000 µM under setting [1] is 26%.
Take `CC(=O)CC(C)=O` [2,4-pentanedione]: the activity at 10000 µM worked out at 130%. The compound also showed an Activity (10 mM keto compound) of 4.22 U/ml.
For the setting “10 mM keto compound”, `CCOC(=O)CCC(C)=O` [laevulinic acid ethyl ester] showed an Activity of 2.99 U/ml. The activity at 10000 µM under setting [1] turned out to be 92%.
As to `COC(=O)C(C)=O` [methyl pyruvate], the Activity (10 mM keto compound) came to 3.22 U/ml. The activity at 10000 µM under setting [1] was 98%.
Take `CC(=O)CC(=O)OCc1ccccc1` [aceto acetic acid benzyl ester]: for the setting “10 mM keto compound”, the Activity is listed as 4.11 U/ml. Further, the activity at 10000 µM under setting [1] came to 126%.
Consider `CC(=O)c1cccc(Cl)c1` [3-Cl-acetophenone], for which the activity at 10000 µM was found to be 147%. Besides, the Activity (10 mM keto compound) turned out to be 4.80 U/ml.
In turn, `CCOC(=O)C1CCCCC1=O` (stereo not shown) [cyclohexanone-2-carboxylic acid ethyl ester] yielded an Activity (10 mM keto compound) of 0.41 U/ml. Besides, the activity at 10000 µM under setting [1] was 13%.
As to `CC(=O)c1ccccc1Cl` [2-Cl-acetophenone], the activity at 10000 µM was determined as 10%. For the setting “10 mM keto compound”, this compound had an Activity of 0.33 U/ml.
`CCc1ccc(C(C)=O)cc1` [4-ethylacetophenone]: the activity at 10000 µM is 65%. Where the note is “10 mM keto compound”, this compound showed an Activity of 2.13 U/ml.
For the compound `CC(=O)c1cccc2ccccc12` [methyl-1-naphthyl ketone], the Activity (10 mM keto compound) is 1.21 U/ml. Also, the activity at 10000 µM under setting [1] worked out at 37%.
ketovaleric acid: the Activity (10 mM keto compound) came out at 0.27 U/ml. The compound also had a Relative act. under setting [1] of 8%.
The compound `CCC(=O)CC(=O)OC` [3-oxo-n-valeric acid methyl ester] gave an Activity (10 mM keto compound) of 2.26 U/ml. The activity at 10000 µM under setting [1] stood at 69%.
`CC(=O)Cc1ccccc1` [benzylmethyl ketone]: the activity at 10000 µM turned out to be 11%. Moreover, under “10 mM keto compound”, the Activity was determined as 0.36 U/ml.
For the compound `CCOC(=O)C(=O)CCc1ccccc1` [2-oxo-4-phenylbutyric acid ethyl ester], where the note is “10 mM keto compound”, the Activity is listed as 4.60 U/ml. The Relative act. under setting [1] stood at 141%.
In turn, `CCOC(=O)CC(=O)C(C)C` [isobutyrylacetic acid ethyl ester] yielded an Activity (10 mM keto compound) of 1.93 U/ml. Further, under setting [1], the activity at 10000 µM turned out to be 59%.
`CC1CCCCC1=O` (stereo not shown) [2-methylcyclohexanone] came in with an Activity (10 mM keto compound) of 6.25 U/ml. In addition, the activity at 10000 µM under setting [1] turned out to be 192%.
As for `CCOC(=O)C(=O)CCc1ccccc1` [ethyl-2-oxo-4-phenyl butyrate], the Activity (10 mM keto compound) is reported as 0.40 U/ml. Also, under setting [1], the Relative act. amounted to 12%.
Consider `O=Cc1ccccc1` [benzaldehyde], for which the activity at 10000 µM is 9%. Also, the Activity (10 mM keto compound) worked out at 0.30 U/ml.
For `COC(=O)CC(C)=O` [aceto acetic acid methyl ester] the same measures were 117% and 3.81 U/ml.
`CC(=O)CCCC(=O)O` [4-acetylbutyric acid] had an Activity (10 mM keto compound) of 0.32 U/ml. Also, under setting [1], the activity at 10000 µM was determined as 10%.
On to `CCCC(=O)CC(=O)OCC` [ethylbutyryl acetate], for which the Activity (10 mM keto compound) amounted to 2.21 U/ml. In addition, the activity at 10000 µM under setting [1] came out at 68%.
On to `CCCCOC(C)=O` [acetic acid butyl ester], for which the activity at 10000 µM was 64%. Besides, under “10 mM keto compound”, the Activity is given as 2.07 U/ml.
Take `CC(=O)c1ccc(Cl)cc1` [4-Cl-acetophenone]: the activity at 10000 µM is 203%. For the setting “10 mM keto compound”, this compound came in with an Activity of 6.63 U/ml.
Turning to `CCOC(=O)CC(=O)CCl` [4-Cl-acetic acid ethyl ester], the activity at 10000 µM turned out to be 93%. For the setting “10 mM keto compound”, this compound gave an Activity of 3.04 U/ml.
